Literature values, collected in patent publication US7393692B2, “SERS method for rapid pharmacokinetic analysis of drugs in saliva” (Real-Time Analyzers, Inc., priority 2004, dated 2008).

Legend:
[1] = patient dependent
[2] = biological target: T1, dihydropyrimidine dehydrogenase (DPD) (Homo sapiens, UniProt Q12882); conditions: patient with the normal amount of DPD
T1 construct: endogenous in cells; host or cells: human individuals / hypothetical cancer patients (in vivo metabolism)
T1 sequence (Q12882 4-1025): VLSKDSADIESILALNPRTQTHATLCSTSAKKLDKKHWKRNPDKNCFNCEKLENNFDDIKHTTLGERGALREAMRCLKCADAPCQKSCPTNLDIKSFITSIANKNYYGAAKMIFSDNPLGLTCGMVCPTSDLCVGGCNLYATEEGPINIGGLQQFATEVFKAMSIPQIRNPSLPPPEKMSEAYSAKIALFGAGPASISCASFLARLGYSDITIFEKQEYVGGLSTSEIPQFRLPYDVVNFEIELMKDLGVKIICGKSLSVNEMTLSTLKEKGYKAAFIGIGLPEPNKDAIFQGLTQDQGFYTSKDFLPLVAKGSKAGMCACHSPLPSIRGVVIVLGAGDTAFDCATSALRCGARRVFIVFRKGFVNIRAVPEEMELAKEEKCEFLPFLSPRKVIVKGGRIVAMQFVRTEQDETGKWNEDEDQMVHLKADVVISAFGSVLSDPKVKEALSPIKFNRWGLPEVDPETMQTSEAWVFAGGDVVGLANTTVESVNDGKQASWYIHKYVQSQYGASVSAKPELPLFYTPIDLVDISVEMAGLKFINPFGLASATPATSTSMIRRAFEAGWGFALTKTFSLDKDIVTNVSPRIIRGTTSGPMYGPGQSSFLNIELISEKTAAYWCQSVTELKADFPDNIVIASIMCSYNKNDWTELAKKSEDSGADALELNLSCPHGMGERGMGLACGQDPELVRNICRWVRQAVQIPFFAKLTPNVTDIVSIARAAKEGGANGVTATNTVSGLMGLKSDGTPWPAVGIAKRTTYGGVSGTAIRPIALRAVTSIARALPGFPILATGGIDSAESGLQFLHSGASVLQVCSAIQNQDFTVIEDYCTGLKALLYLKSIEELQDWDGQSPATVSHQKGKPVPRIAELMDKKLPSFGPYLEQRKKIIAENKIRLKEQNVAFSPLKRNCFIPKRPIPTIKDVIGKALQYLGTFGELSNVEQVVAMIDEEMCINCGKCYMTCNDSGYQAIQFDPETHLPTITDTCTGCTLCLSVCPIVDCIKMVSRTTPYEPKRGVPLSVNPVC

SMILES: O=c1[nH]cc(F)c(=O)[nH]1 [5-FU, 5-fluorouracil]
- 5-FU concentration in saliva, maximum ([1]; closely matches plasma): 15 to 28 µg/mL
- 5-FU concentration in saliva, three hour minimum ([1]; three hour minimum): 0.1 µg/mL
- 5-FU metabolized to 5-FUH2 on average [2]: about 50%
